Test results: patent US20210236443A1, “METHOD OF TREATMENT OF NON-ALCOHOLIC STEATOHEPATITIS, NASH” (KRISH BIOTECH RESEARCH PRIVATE LIMITED, priority 2018, published 2021)

How the values were obtained:
MCP-1 = MCP-1 release in LPS-stimulated RAW 264.7 cells; assay type: cell-based; details: Mus musculus, RAW264.7, LPS 10 ng/ml, 2.5 hours, compound pre-incubation 1 hour
Procedure: (§1) Assay for TNFα and MCP-1 Release in RAW 264.7 Cells:
(§2) Cells were seeded at a density of 50000 cells/well/100 μl in a 96 well plate and left overnight in the CO2 incubator under normal cell culture conditions for adherence. Next day, old media was removed and fresh media added per well with compounds in duplicate for 1 hour with 0.1% DMSO. Cells were stimulated with LPS (Lipopolysaccharides) at 10 ng/ml and incubated at cell culture conditions for 2.5 hours. Post incubation, the supernatant was collected in fresh 96 well plate and stored at −80 degree for TNF-α, and MCP-1 estimation.
(§3) The dose-response curve was analyzed using Sigma Plot/Graph Pad. The IC50 (concentration of the test compounds where 50% of compounds' maximal activity is observed) values were calculated from the dose-response curve.

TNFα = TNFα release in LPS-stimulated RAW 264.7 cells; assay type: cell-based; details: Mus musculus, RAW264.7, LPS 10 ng/ml, 2.5 hours, compound pre-incubation 1 hour, read-out: TNF-alpha IC50
Procedure: as §1, §2, §3

| Compound | IC50 (MCP-1) [nM] | IC50 (TNFα) [nM] |
| --- | --- | --- |
| CC1(c2ccc(-c3ccc(F)cc3COc3ccc(CCCC(=O)O)cc3)s2)CC1 [SI. No. 20, 4-(4-((5-Fluoro-2-(5-(1-methylcyclopropyl)thiophen-2-yl)benzyl)oxy)phenyl) butanoic acid] | 1080 | 660 |
| O=C(O)CCCc1ccc(OCc2cc(F)ccc2-c2ccc(C3CC3)s2)cc1 [SI. No. 8, 4-(4-((2-(5-Cyclopropylthiophen-2-yl)-S-fluorobenzyl)oxy)phenyl)butanoic acid] | 2040 | > 10000 |
| CC1(c2ccc(-c3ccc(F)cc3COc3ccc(CCCC(=O)O)cc3)cc2)CC1 [SI. No. 2, 4-(4-((4-Fluoro-4′-(1-methylcyclopropyl)-[1,1′-biphenyl]-2-yl)methoxy)phenyl)butanoic acid] | 290 | 5650 |
| O=C(O)CCCc1ccc(OCc2cc(F)ccc2-c2ncc(C3CC3)s2)cc1 [SI. No. 24, 4-(4-((2-(5-Cyclopropylthiazol-2-yl)-S-fluorobenzyl)oxy)phenyl)butanoic acid] | 230 | 630 |
